From article PMC12527922, “Cocaine chemogenetics blunts drug-seeking by synthetic physiology” (Nature, 2025) come the findings set out here.

For orientation: EC50 means the concentration at which the effect is half-maximal.

Structures are written as SMILES. “And” between values parts separate entries of the source, which are not always exact repeats. Identical values can stand only once. Like-named read-outs stand apart in the source and are kept apart here.

Assay [1] has as its target T1, coca-GlyR (α7(L141G,G175K,Y217F)–GlyR) (Homo sapiens, UniProt P23415+P36544, G175K/L141G/Y217F).
T1 construct: expressed in transfected cells; host or cells: HEK293 (ATCC CRL-1573), pcDNA3.1
Nature of the assay: Membrane potential assay, coca-GlyR in HEK293. The format is cell-based.

Assay [2] deals with T2, unmodified α7–5HT3 (UniProt P23979+P36544, M226I/T225I).
T2 construct: expressed in transfected cells; host or cells: HEK293 (ATCC CRL-1573), pcDNA3.1
Nature of the assay: Membrane potential assay, unmodified α7–5HT3. In kind it is cell-based, human α7 nAChR LBD, mouse 5HT3 IPD.

For assay [3], the target named is T3, unmodified α7–GlyR (Homo sapiens, UniProt P23415+P36544).
T3 construct: expressed in transfected cells; host or cells: HEK293 (ATCC CRL-1573), pcDNA3.1
Nature of the assay: Membrane potential assay, unmodified α7–GlyR. The settings on record: sheet 1d. The format is cell-based.

For assay [4], the system named is α7–5HT3 mutant chimeric channels. The experiment in a line: cell-based. In kind it is cell-based, human α7 nAChR LBD, mouse 5HT3 IPD. The settings on record: for EC50: sheet 1e.
For assay [5], the system named is coca-5HT3. Nature of the assay: Whole-cell voltage-clamp in HEK293 cells, coca-5HT3. In kind it is cell-based, human α7 nAChR LBD, mouse 5HT3 IPD. The protocol: Channel mutants and agonists were further characterized in whole-cell voltage-clamp experiments performed on HEK293 cells. At passage 44–48, cells were plated at low density (1 × 10^3 per cm^2) on poly-D-lysine-coated glass coverslips, then transfected in 10 cm^2 wells using the Fugene 6 transfection reagent (Roche) with DNA plasmids containing both an ion channel cDNA (pcDNA3.1, 2 µg per well) and cDNA for GFP (pCMV, 0.1 μg per well), followed by replacement of the medium after 3 h. Recordings were made 24–72 h after transfection.
Electrophysiological recordings were performed in whole-cell voltage-clamp mode, on an inverted fluorescence microscope (Olympus IX-51) using pClamp software and a […] amplifier (Molecular Devices). Electrophysiological data was filtered at 4 kHz, digitized at 10 kHz using a Digidata 1400 interface (Molecular Devices), recorded on a PC (Dell) and analysed using custom MATLAB software (MathWorks). Solutions were delivered from a gravity fed perfusion system through a capillary tube placed approximately […] from the recorded cell using an eight-way manifold pinch valve system (Nanion), which was controlled from the acquisition software. This allowed for up to seven concentrations of agonist to be tested. […]

Setting [6] is: screen of chimeric α7–5HT3 and α7–GlyR single LBD mutants (Fig. 1d).

T2 sequence (P36544+P23979 fused P36544:T225I/P36544:M226I): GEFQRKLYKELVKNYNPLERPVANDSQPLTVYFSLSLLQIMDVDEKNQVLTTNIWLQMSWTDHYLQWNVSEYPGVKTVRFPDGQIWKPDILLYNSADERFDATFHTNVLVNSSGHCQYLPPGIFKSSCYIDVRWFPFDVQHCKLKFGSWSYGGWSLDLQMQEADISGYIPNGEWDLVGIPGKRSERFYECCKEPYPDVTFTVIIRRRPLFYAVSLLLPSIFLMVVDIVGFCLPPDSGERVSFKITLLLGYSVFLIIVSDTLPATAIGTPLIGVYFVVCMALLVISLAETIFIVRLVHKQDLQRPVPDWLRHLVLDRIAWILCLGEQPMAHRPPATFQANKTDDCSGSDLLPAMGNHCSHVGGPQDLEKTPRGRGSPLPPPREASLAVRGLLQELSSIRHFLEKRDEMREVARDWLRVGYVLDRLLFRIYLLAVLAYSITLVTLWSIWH
T3 sequence (P36544+P23415 fused): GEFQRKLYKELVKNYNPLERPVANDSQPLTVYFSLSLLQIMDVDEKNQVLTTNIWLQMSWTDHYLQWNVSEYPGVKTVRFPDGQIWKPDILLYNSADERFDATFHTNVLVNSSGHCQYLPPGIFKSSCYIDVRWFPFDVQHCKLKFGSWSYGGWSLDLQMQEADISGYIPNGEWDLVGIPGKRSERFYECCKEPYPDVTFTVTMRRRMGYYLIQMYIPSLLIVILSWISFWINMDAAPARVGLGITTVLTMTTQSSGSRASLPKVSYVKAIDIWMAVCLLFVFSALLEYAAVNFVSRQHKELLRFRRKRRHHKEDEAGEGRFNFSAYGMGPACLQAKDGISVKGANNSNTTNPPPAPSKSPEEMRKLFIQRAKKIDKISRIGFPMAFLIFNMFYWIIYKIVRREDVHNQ
T1 sequence (P36544+P23415 fused P36544:L141G/P36544:G175K/P36544:Y217F): as the sequence (P36544+P23415 fused) above, with L119G, G153K, Y195F counted along it

Regarding `COC(=O)[C@H]1[C@@H](OC(=O)c2ccccc2)C[C@@H]2CC[C@H]1N2C` [cocaine], the concentration giving a half-maximal response (EC50) was determined as 1.2 ± 0.1 µM in assay [1]; 4.78 µM in assay [4] (AVG, read-out: EC50 at a75HT3 L141G G175K Y115F, AVG); 2.27 µM in assay [4] (AVG, read-out: EC50 at a75HT3 L141G G175K Y210F, AVG); 0.715 µM in assay [4] (AVG, read-out: EC50 at a75HT3 L141G G175K Y217F, AVG); 0.315 µM in assay [4] (AVG, read-out: EC50 at a75HT3 L141G G175K, AVG); 2.35 µM in assay [4] (AVG, read-out: EC50 at a75HT3 L141G, AVG). The concentration giving a half-maximal response (EC50) was 2.35 µM in assay [4] (single determinations, read-out: EC50 at a75HT3 L141G); 0.39 µM and 0.24 µM in assay [4] (single determinations, read-out: EC50 at a75HT3 L141G G175K); 0.8 µM and 0.63 µM in assay [4] (single determinations, read-out: EC50 at a75HT3 L141G G175K Y217F). The half-maximal effective concentration (EC50) at a75HT3 unmodified, AVG in assay [2] (sheet 1e, AVG) amounted to 30 µM. The same compound gave a half-maximal effective concentration (EC50) at a75HT3 unmodified in assay [2] (sheet 1e, single determinations) of 30 µM. Further, the midpoint of the response in assay [2] (sheet 1d, Avg), the EC50 at α7-5HT3, Avg, lay at 30 µM. Also, in assay [2] (sheet 1d, single determinations), a half-maximal effect (EC50 at α7-5HT3) was put at 30 µM. This compound also displayed an EC50 at α7-GlyR, Avg in assay [3] (Avg) of 30 µM. In assay [3] (single determinations), this compound had a concentration for a half-maximal effect (EC50) at α7-GlyR of 30 µM. Moreover, in assay [4] (setting [6]), the “agonism at Leu141Gly or Leu141Ala mutant channels” value is given as “marked induction of cocaine agonism”. The “agonist activity at Trp77Phe and Leu131Asn mutant channels” value in assay [4] (setting [6]) is recorded as “some cocaine agonist activity”. Further, in assay [5], the “currents from coca-5HT3” value is reported as “robust cocaine-activated currents”.
